Test results from US4863748A, “Dietary products and uses comprising methylsulfonylmethane” (priority 1986, dated 1989).
Like-named read-outs stand apart in the source and are kept apart here.

Assays:
Trichomonas vaginalis = experiment: In vitro culture of Trichomonas vaginalis (Example 28(a)); type: cell-based, Trichomonas vaginalis Strain ATCC No. 30001
Method: Methylsulfonylmethane has highly variable toxicities for various nematodes. Based on this discovery, tests were conducted on several parasites adverse to the health of vertebrates
Strain ATCC No. 30001 was cultured in vitro employing diamonds tym medium. Methylsulfonylmethane was added thereto at levels varying from 5.5 to 109.3 mg/ml. At concentrations of 5.5 to 10.9 mg/ml, the methylsulfonylmethane had no effect on this protozoan.

mucous membranes = experiment: Binding of labeled 35-S dimethyl sulfone to mucous membranes by autoradiography; conditions: 35-S labeled
Text: 1. Reducing the adverse response to inhalant allergens. This action may be due entirely or in part to a physical blocking action. Labeled 35-S dimethyl sulfone binds tightly to the surface of mucous membranes and by autoradiography, the membranes appears to be coated, as with a paint.

[1] = test system: scarification of the right cheek pouch; experiment: Wound healing of the cheek pouch in hamsters (Example 17); type: in vivo; conditions: 0.1 gm/kg methylsulfonylmethane alone or 100 mg ascorbic acid alone in feed; controls day 4 and 5
Method: Four sets of 5 hamsters were subject to scarification of the right cheek pouch, using standard methodology. One week prior to pouch injury, one set was started on a daily regimen of 0.1 gm/kg of methylsulfonylmethane in the diet of standard hamster feed, a second group was given 0.1 gm/kg of methylsulfonylmethane plus 100 mg of ascorbic acid in the same feed, a third group was given only 100 mg of ascorbic acid in the same feed, and the last group, fed only the feed, was held as control. Daily post-scarification examination was made to determine the rate of injury repair.

coat = experiment: Coat quality of dogs (Example 7); type: in vivo, dog (female labradors); conditions: 5% in drinking water, 45 days; three individuals
Text: The coats of animals A and B of Example 6 were examined by three individuals.

platelet count = experiment: Low platelet count in lupus erythematosus (Example 22); type: in vivo, human; conditions: 1.5 gm/day in 3 doses, 2-year period
Text: Methylsulfonylmethane administered orally raised the platelet count of an adult with lupus erythematosus from 84,000 (after prednisone therapy) to 200,000 over a 2-year period (1.5 gm/day in 3 doses).

leg cramps [2] = experiment: Night leg cramps in geriatric patient (Example 26); type: in vivo, human; conditions: 10 mg/kg/day
Method: Administer methylsulfonylmethane to a geriatric patient (over 65 years) suffering from chronic night leg cramps at the rate of 10 mg/kg/day, either in tablet or capsule form, as described in parent application Ser. Nos. 418,110, 584,354 or 601,771, or in admixture with one or more foodstuffs ingested daily by the patient, e.g., milk, coffee, tea, cold desserts, etc. Within about 2 days, the leg cramps will diminish in frequency or disappear.

anticholinesterases = conditions: in vivo; cited from earlier work
[3] = test system: subjects in apparent good health; experiment: Maintenance of good health (Example 12); type: in vivo, human
Method: 14 subjects of both sexes, all in apparent good health, ages 33-59, were given oral methylsulfonylmethane in amounts ranging from 250 to 500 mg daily which maintained their blood levels above 1 ppm. These individuals were continued on methylsulfonylmethane, taken as a solution in orange juice for periods of from about seven months to over one year.

[4] = Tolerance and toxicity on ingestion; type: in vivo, animals; conditions: for NOAEL: in vivo, po
Text: The methylsulfonylmethane is usually provided in the aninmal's normal feed rations, periodically throughout the day or on successive days, or both, e.g., for 2 to 21 days or even longer. The daily food ration appropriate for the animal being fed is supplemented with an amount of methylsulfonylmethane calculated to correspond to a predetermined amount per total body weight of the animals being fed. The exact amount of methylsulfonylmethane ingested each day is not always critical, particularly when methylsulfonylmethane administration is over an extended period of days, because the ingested methylsulfonylmethane accumulates in the body tissues and fluids, i.e., reaches an effective titer. Methylsulfonylmethane-supplemented rations providing levels of as low as 0.5-1 mg/kg animal body weight are sometimes effective and levels as high as 300 mg/kg body weight or more are well tolerated. The usual target level per individual animal is about 0.2-2.0 mg/kg body weight preferably 0.5-1.0 mg per kg body weight. Total daily supplements corresponding to up to about 1 gm/kg body weight or more, are preferably employed, depending on the degree of deficiency. Healthy animals often have methylsulfonylmethane blood levels of at least 1 ppm, and desirably, enough methylsulfonylmethane is provided to raise blood levels to above 1 ppm. The oral ingestion of amounts of methylsulfonylmethane in excess of that required to elevate blood levels is not harmful because of the extremely non-toxic nature of methylsulfonylmethane.
One can safely administer 1-2 grams/kg body wt. of methylsulfonylmethane on a daily basis (equal to 1000-2000 ppm w/w basis). One therefore builds a safely tolerated blood level of about 4000 ppm, which level is highly toxic to many infective organism yet is harmless to the host. Methylsulfonylmethane provides a unique new therapeutic approach, used alone or with concurrent, conventional therapy.

mammary tumors = conditions: abdominal DMBA; in drinking water; tumors in control animals; cited from earlier work
leg cramps [5] = experiment: Leg cramps in marathon runner (Example 27); type: in vivo, human; conditions: 15 mg/kg/day, at least 7 days
Method: Before a marathon race, administer methylsulfonylmethane to the runner for at least 7 days at the rate of 15 mg/kg/day.

Giardia lamblia = experiment: In vitro inhibition of Giardia lamblia (Example 28(b)); type: cell-based
Method: However, at 20 mg/ml concentration, it was strongly inhibitory and concentrations above 40 mg/ml promptly killed the organism.

mammary carcinoma = experiment: Resistance to DMBA-induced mammary carcinoma (Example 36); type: in vivo, female rats; conditions: 2% by wt. in diet; Group 3; Group 2 (DMBA only) had cancers
Method: Forty-five female rats were stabilized to the laboratory and then divided into 3 groups of 15 each. Group 1 was designated control, Groups 2 and 3 were treated by topical application to the hair-free abdomen with a solution of the carcinogen dimethyl-benzanthracene (DMBA). All three groups were each fed a standard laboratory diet with water, ad lib. Group 3 also received in […] their standard diet 2% by wt. of methylsulfonylmethane.

[6] = 250 to 500 mg daily, seven months to over one year

SMILES: CS(C)(=O)=O [methylsulfonylmethane]
- lethal concentrations (Trichomonas vaginalis; all higher concentrations tested, to 109.3 mg/ml): > 21.9 mg/mL
- activity relative to metronidazole HCL (Trichomonas vaginalis; in vitro, based on this assay): about half
- concentration with no effect on this protozoan (Trichomonas vaginalis; in vitro, diamonds tym medium): 5.5 to 10.9 mg/mL
- binding to the surface of mucous membranes (mucous membranes): binds tightly
- day on which the 36-hour combination healing result was matched [1]: three
- coat quality (thickness and shiny appearance) (coat): superior
- platelet count (platelet count): 200,000
- time until leg cramps diminish in frequency or disappear (leg cramps [2]): about 2 days
- lethal effects of anticholinesterases such as paraoxon, tetraethyl pyrophosphate and octamethyl pyrophosphoramide (anticholinesterases): antagonizes
- blood level ([3]; 250 to 500 mg daily oral): above 1 ppm
- illness during testing [3, 6]: None of the 14 became ill
- reported well-being [3, 6]: feeling better and stronger with increased endurance
- acute and chronic toxicity ([4]; in the host's diet): remarkably low
- NOAEL ([4]; daily basis, read-out: safely administered daily dose): 1000 to 2000 mg/kg/day
- NOAEL ([4]; supplemented rations, or more, read-out: well tolerated level in rations): ≥ 300 mg/kg
- toxicity at high (greater than 1 gm/kg body wt.) blood levels ([4]; primates, at least two years): lack evidence of methylsulfonylmethane toxicity
- development of tumors (mammary tumors): did not develop tumors
- likelihood of severe leg cramp during or after race (leg cramps [5]): significantly reduced
- concentration promptly killing the organism (Giardia lamblia): above 40 mg/ml
- concentration with no significant inhibition (Giardia lamblia): ≤ 1 mg/mL
- strongly inhibitory concentration (Giardia lamblia): 20 mg/mL
- mammary carcinoma at 5 months post DMBA (mammary carcinoma): free of mammary carcinoma
